# From patent US20240116985A1, “STAPLED PEPTIDES AND METHODS THEREOF” (priority 2020, published 2024)
# Like-named read-outs stand apart in the source and are kept apart here.
# How the values were obtained:
# [1] = biological target: T1, beta-catenin/TCF4 engagement (Homo sapiens, UniProt P35222); experiment: Nano-BRET target engagement assay (B-cat-Halo & TCF4-Luc in HEK293 cells); format: cell-based
# T1 construct: expressed in transfected cells; host or cells: HEK293
# T1 sequence (P35222 1-781): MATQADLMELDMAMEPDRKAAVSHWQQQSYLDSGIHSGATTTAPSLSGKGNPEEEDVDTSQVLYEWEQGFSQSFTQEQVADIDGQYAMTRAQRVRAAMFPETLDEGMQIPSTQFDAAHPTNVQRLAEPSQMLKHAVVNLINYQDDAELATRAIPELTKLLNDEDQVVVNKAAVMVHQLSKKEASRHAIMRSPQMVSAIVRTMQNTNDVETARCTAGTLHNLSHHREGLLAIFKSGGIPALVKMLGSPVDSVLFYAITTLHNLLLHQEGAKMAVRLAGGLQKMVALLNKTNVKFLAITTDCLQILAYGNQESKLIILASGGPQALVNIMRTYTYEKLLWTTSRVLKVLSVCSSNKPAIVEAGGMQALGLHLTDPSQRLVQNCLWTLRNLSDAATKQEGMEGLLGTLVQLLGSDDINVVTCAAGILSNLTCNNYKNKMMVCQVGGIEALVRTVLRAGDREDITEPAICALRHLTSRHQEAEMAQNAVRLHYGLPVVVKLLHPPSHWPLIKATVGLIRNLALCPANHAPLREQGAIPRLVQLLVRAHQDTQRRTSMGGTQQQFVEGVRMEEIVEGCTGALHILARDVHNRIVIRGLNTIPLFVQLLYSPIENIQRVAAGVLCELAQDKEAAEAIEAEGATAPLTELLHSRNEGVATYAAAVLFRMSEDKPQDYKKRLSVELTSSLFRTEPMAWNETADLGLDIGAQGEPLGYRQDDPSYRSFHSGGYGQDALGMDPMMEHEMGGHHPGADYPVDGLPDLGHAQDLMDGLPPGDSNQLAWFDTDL
# [2] = biological target: T2, full-length beta-Catenin (Uniprot ID P35222) (Homo sapiens, UniProt P35222); experiment: Fluorescence polarization IC50 (beta-catenin / 5FAM-TCF4 10-53 competition); format: binding; conditions: read-out: beta-Catenin FP IC50
# T2 construct: 10 nM full-length beta-Catenin (Uniprot ID P35222)
# T2 sequence (P35222 1-781): T1 sequence (P35222 1-781)
# CHI Log D procedure = format: physicochemical; conditions: pH 7.4, CHI Log D
# Solubility in PBS = format: physicochemical
# Procedure, shortened: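 HPLC quantitation of peptide remaining in the PBS supernatant after ultracentrifugation, referenced to a 50 μM solution in DMSO.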
Structure (SMILES),IC50 ([1]; read-out: NanoBRET Abs IC50) [nM],IC50 ([1]; read-out: NanoBRET IC50) [nM],IC50 [2] [nM],chromatographic logD (CHI Log D procedure),Solubility (Solubility in PBS) [µM],Solubility (Solubility in PBS; Solubility (uM)) [µM],solubility at 15 min (Solubility in PBS; Solubility (uM)) [µM]
"CC(=O)N1CCC[C@]12CC=CCCCC1(CCCC=CCCCOC(=O)N3CC[C@@](C(=O)N[C@@H](Cc4ccsc4)C(=O)N[C@@H](Cc4csc5ccccc45)C(=O)N[C@@H](CCC(N)=O)C(N)=O)(C3)NC(=O)[C@H](CC(N)=O)NC(=O)[C@H](Cc3ccccc3)NC(=O)[C@H](C)NC(=O)[C@H](C)NC(=O)[C@H](Cc3c[nH]cn3)NC(=O)[C@H](CC(=O)O)NC1=O)NC(=O)[C@H](CC(C)(C)C)NC(=O)[C@H](CC(=O)O)NC2=O (stereo partly drawn) [I-864, Ac-PL3-Asp-Npg-B5-Asp-His-Ala-Ala-Phe-Asn-PyrS2-3Thi-BztA-Gln-NH2]",40000,29100,12,2.62,10,,
"CC(=O)N1CCC[C@]12CC=CCCCC1(CCCC=CCCCOC(=O)N3CC[C@@](C(=O)N[C@@H](Cc4ccsc4)C(=O)N[C@@H](Cc4csc5ccccc45)C(=O)N[C@@H](CCC(N)=O)C(N)=O)(C3)NC(=O)[C@H](CC(N)=O)NC(=O)[C@H](Cc3ccccc3)NC(=O)[C@H](CCCCNC(=O)CCc3cccc4ccccc34)NC(=O)[C@H](C)NC(=O)[C@H](CC(=O)O)NC(=O)[C@H](CC(=O)O)NC1=O)NC(=O)[C@H](CC(C)(C)C)NC(=O)[C@H](CC(=O)O)NC2=O (stereo partly drawn) [I-884, Ac-PL3-Asp-Npg-B5-Asp-Asp-Ala-[1NapPr]Lys-Phe-Asn-PyrS2-3Thi-BztA-Gln-NH2]",> 20000,,14,2.11,,34,
"CC(=O)N1CCC[C@]12CC=CCCCC1(CCCC=CCCCOC(=O)N3CC[C@@](C(=O)N[C@@H](Cc4ccsc4)C(=O)N[C@@H](Cc4csc5ccccc45)C(=O)N[C@@H](CCC(N)=O)C(N)=O)(C3)NC(=O)[C@H](CC(N)=O)NC(=O)[C@H](Cc3ccccc3)NC(=O)[C@H](CCCCNC(=O)C(C)(c3ccccc3)c3ccccc3)NC(=O)[C@H](C)NC(=O)[C@H](CC(=O)O)NC(=O)[C@H](CC(=O)O)NC1=O)NC(=O)[C@H](CC(C)(C)C)NC(=O)[C@H](CC(=O)O)NC2=O (stereo partly drawn) [I-885, Ac-PL3-Asp-Npg-B5-Asp-Asp-Ala-[22PhPr]Lys-Phe-Asn-PyrS2-3Thi-BztA-Gln-NH2]",> 20000,,32,2.39,,43,
"CC(=O)N1CCC[C@]12CC=CCCCC1(CCCC=CCCCOC(=O)N3CC[C@@](C(=O)N[C@@H](Cc4ccsc4)C(=O)N[C@@H](Cc4csc5ccccc45)C(=O)N[C@@H](CCC(N)=O)C(N)=O)(C3)NC(=O)[C@H](CC(N)=O)NC(=O)[C@H](Cc3ccccc3)NC(=O)[C@H](CCCCNC(=O)CN3CCOCC3)NC(=O)[C@H](C)NC(=O)[C@H](CC(=O)O)NC(=O)[C@H](CC(=O)O)NC1=O)NC(=O)[C@H](CC(C)(C)C)NC(=O)[C@H](CC(=O)O)NC2=O (stereo partly drawn) [I-886, Ac-PL3-Asp-Npg-B5-Asp-Asp-Ala-[MorphAc]Lys-Phe-Asn-PyrS2-3Thi-BztA-Gln-NH2]",> 20000,,22,1.51,,43,
"CC(=O)N1CCC[C@]12CC=CCCCC1(CCCC=CCCCOC(=O)N3CC[C@@](C(=O)N[C@@H](Cc4ccsc4)C(=O)N[C@@H](Cc4csc5ccccc45)C(=O)N[C@@H](CCC(N)=O)C(N)=O)(C3)NC(=O)[C@H](CC(N)=O)NC(=O)[C@H](Cc3ccccc3)NC(=O)[C@H](CCCCNC(=O)CN3CCN(C)CC3)NC(=O)[C@H](C)NC(=O)[C@H](CC(=O)O)NC(=O)[C@H](CC(=O)O)NC1=O)NC(=O)[C@H](CC(C)(C)C)NC(=O)[C@H](CC(=O)O)NC2=O (stereo partly drawn) [I-887, Ac-PL3-Asp-Npg-B5-Asp-Asp-Ala-[MePipAc]Lys-Phe-Asn-PyrS2-3Thi-BztA-Gln-NH2]",> 20000,,14,1.37,,46,
"CC(=O)N1CCC[C@]12CC=CCCCC1(CCCC=CCCCOC(=O)N3CC[C@@](C(=O)N[C@@H](Cc4ccsc4)C(=O)N[C@@H](Cc4csc5ccccc45)C(=O)N[C@@H](CCC(N)=O)C(N)=O)(C3)NC(=O)[C@H](CC(N)=O)NC(=O)[C@H](Cc3ccccc3)NC(=O)[C@H](CCCCNC(=O)c3ccc(CN4CCN(C)CC4)cc3)NC(=O)[C@H](C)NC(=O)[C@H](CC(=O)O)NC(=O)[C@H](CC(=O)O)NC1=O)NC(=O)[C@H](CC(C)(C)C)NC(=O)[C@H](CC(=O)O)NC2=O (stereo partly drawn) [I-889, Ac-PL3-Asp-Npg-B5-Asp-Asp-Ala-[4MePipBz]Lys-Phe-Asn-PyrS2-3Thi-BztA-Gln-NH2]",> 20000,,16,1.49,,,41
"CC(=O)N1CCC[C@]12CC=CCCCC1(CCCC=CCCCOC(=O)N3CC[C@@](C(=O)N[C@@H](Cc4ccsc4)C(=O)N[C@@H](Cc4csc5ccccc45)C(=O)N[C@@H](CCC(N)=O)C(N)=O)(C3)NC(=O)[C@H](CC(N)=O)NC(=O)[C@H](Cc3ccccc3)NC(=O)[C@H](CCCCNC(=O)c3ccc(CN4CCOCC4)cc3)NC(=O)[C@H](C)NC(=O)[C@H](CC(=O)O)NC(=O)[C@H](CC(=O)O)NC1=O)NC(=O)[C@H](CC(C)(C)C)NC(=O)[C@H](CC(=O)O)NC2=O (stereo partly drawn) [I-890, Ac-PL3-Asp-Npg-B5-Asp-Asp-Ala-[MeMorphBz]Lys-Phe-Asn-PyrS2-3Thi-BztA-Gln-NH2]",> 20000,,16,1.67,,40,
"COCCOCCOCCOCCOCCOCCC(=O)NCCCC[C@@H]1NC(=O)[C@H](C)NC(=O)[C@H](CC(=O)O)NC(=O)[C@H](CC(=O)O)NC(=O)C2(CCCC=CCCCOC(=O)N3CC[C@@](C(=O)N[C@@H](Cc4ccsc4)C(=O)N[C@@H](Cc4csc5ccccc45)C(=O)N[C@@H](CCC(N)=O)C(N)=O)(C3)NC(=O)[C@H](CC(N)=O)NC(=O)[C@H](Cc3ccccc3)NC1=O)CCCC=CC[C@]1(CCCN1C(C)=O)C(=O)N[C@@H](CC(=O)O)C(=O)N[C@@H](CC(C)(C)C)C(=O)N2 (stereo partly drawn) [I-895, Ac-PL3-Asp-Npg-B5-Asp-Asp-Ala-[mPEG6]Lys-Phe-Asn-PyrS2-3Thi-BztA-Gln-NH2]",> 20000,,14,1.45,,31,
"COCCOCCOCCOCCOCCOCCOCCOCCC(=O)NCCCC[C@@H]1NC(=O)[C@H](C)NC(=O)[C@H](CC(=O)O)NC(=O)[C@H](CC(=O)O)NC(=O)C2(CCCC=CCCCOC(=O)N3CC[C@@](C(=O)N[C@@H](Cc4ccsc4)C(=O)N[C@@H](Cc4csc5ccccc45)C(=O)N[C@@H](CCC(N)=O)C(N)=O)(C3)NC(=O)[C@H](CC(N)=O)NC(=O)[C@H](Cc3ccccc3)NC1=O)CCCC=CC[C@]1(CCCN1C(C)=O)C(=O)N[C@@H](CC(=O)O)C(=O)N[C@@H](CC(C)(C)C)C(=O)N2 (stereo partly drawn) [I-896, Ac-PL3-Asp-Npg-B5-Asp-Asp-Ala-[mPEG8]Lys-Phe-Asn-PyrS2-3Thi-BztA-Gln-NH2]",> 20000,,22,1.45,,,30
"CCCC(=O)NCCCC[C@@H]1NC(=O)[C@H](C)NC(=O)[C@H](CC(=O)O)NC(=O)[C@H](CC(=O)O)NC(=O)C2(CCCC=CCCCOC(=O)N3CC[C@@](C(=O)N[C@@H](Cc4ccsc4)C(=O)N[C@@H](Cc4csc5ccccc45)C(=O)N[C@@H](CCC(N)=O)C(N)=O)(C3)NC(=O)[C@H](CC(N)=O)NC(=O)[C@H](Cc3ccccc3)NC1=O)CCCC=CC[C@]1(CCCN1C(C)=O)C(=O)N[C@@H](CC(=O)O)C(=O)N[C@@H](CC(C)(C)C)C(=O)N2 (stereo partly drawn) [I-897, Ac-PL3-Asp-Npg-B5-Asp-Asp-Ala-[Bua]Lys-Phe-Asn-PyrS2-3Thi-BztA-Gln-NH2]",> 20000,,16,1.65,,43,
"CCCCCCCC(=O)NCCCC[C@@H]1NC(=O)[C@H](C)NC(=O)[C@H](CC(=O)O)NC(=O)[C@H](CC(=O)O)NC(=O)C2(CCCC=CCCCOC(=O)N3CC[C@@](C(=O)N[C@@H](Cc4ccsc4)C(=O)N[C@@H](Cc4csc5ccccc45)C(=O)N[C@@H](CCC(N)=O)C(N)=O)(C3)NC(=O)[C@H](CC(N)=O)NC(=O)[C@H](Cc3ccccc3)NC1=O)CCCC=CC[C@]1(CCCN1C(C)=O)C(=O)N[C@@H](CC(=O)O)C(=O)N[C@@H](CC(C)(C)C)C(=O)N2 (stereo partly drawn) [I-898, Ac-PL3-Asp-Npg-B5-Asp-Asp-Ala-[Oct]Lys-Phe-Asn-PyrS2-3Thi-BztA-Gln-NH2]",> 20000,,16,2.2,,42,
